Test results reported in ChEMBL document CHEMBL1138714, “Isosteric N-arylpiperazine replacements in a series of dihydropyridine NPY1 receptor antagonists” (Bioorg Med Chem Lett, 2004).
pIC50, pKi: −log10 of the molar value.

Molecular target: T1, Neuropeptide Y receptor type 1 (Homo sapiens, UniProt P25929)
T1 sequence (P25929 whole entry): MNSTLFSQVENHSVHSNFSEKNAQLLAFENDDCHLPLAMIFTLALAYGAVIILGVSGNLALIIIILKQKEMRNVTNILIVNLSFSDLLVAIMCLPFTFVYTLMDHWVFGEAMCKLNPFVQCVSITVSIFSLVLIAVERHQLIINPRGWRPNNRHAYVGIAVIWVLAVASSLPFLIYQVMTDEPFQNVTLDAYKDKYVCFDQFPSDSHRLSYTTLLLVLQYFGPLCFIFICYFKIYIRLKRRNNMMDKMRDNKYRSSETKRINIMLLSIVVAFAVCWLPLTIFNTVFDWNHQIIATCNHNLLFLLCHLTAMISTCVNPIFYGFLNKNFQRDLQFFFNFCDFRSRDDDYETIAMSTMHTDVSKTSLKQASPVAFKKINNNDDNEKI
Test: Inhibition of binding of [125I]PYY to membranes of SK-N-MC cells expressing the human Y1 receptors
Assay type: cell membranes

SMILES | pIC50
COC(=O)C1=C(C)N=C(C)/C(=C(/O)OC)C1c1cccc(NC(=O)NCCCN2CCN(c3ccccc3OC)CC2)c1 (stereo unspecified) | 7.92
COC(=O)C1=C(C)N=C(C)/C(=C(/O)OC)C1c1cccc(N/C(=N/CCNC2CCN(c3ccccc3C)CC2)NC#N)c1 (stereo unspecified) | 8.40
COC(=O)C1=C(C)N=C(C)/C(=C(/O)OC)C1c1cccc(NC(=O)NCCNC2CCN(c3ccccc3SC)CC2)c1 (stereo unspecified) | 8.30
COC(=O)C1=C(C)N=C(C)/C(=C(/O)OC)C1c1cccc(N/C(=N/CCNC2CCN(c3ccccc3OC(F)(F)F)CC2)NC#N)c1 (stereo unspecified) | 7.55
COC(=O)C1=C(C)N=C(C)/C(=C(/O)OC)C1c1cccc(N/C(=N/CCNC2CCN(c3ccccc3C(F)(F)F)CC2)NC#N)c1 (stereo unspecified) | 7.85
COC(=O)C1=C(C)N=C(C)/C(=C(/O)OC)C1c1cccc(N/C(=N/CCNC2CCN(c3cccc(Cl)c3)CC2)NC#N)c1 (stereo unspecified) | 8.10
COC(=O)C1=C(C)N=C(C)/C(=C(/O)OC)C1c1cccc(N/C(=N/CCCN2CCN(c3cccc(OC)c3)CC2)NC#N)c1 (stereo unspecified) | 7.41
COC(=O)C1=C(C)N=C(C)/C(=C(/O)OC)C1c1cccc(NC(=O)NCCNC2CCN(c3ccccc3C#N)CC2)c1 (stereo unspecified) | 8.52
COC(=O)C1=C(C)N=C(C)/C(=C(/O)OC)C1c1cccc(NC(=O)NCCNC2CCN(c3ccccc3C(F)(F)F)CC2)c1 (stereo unspecified) | 7.51
COC(=O)C1=C(C)N=C(C)/C(=C(/O)OC)C1c1cccc(N/C(=N/CCNC2CCN(c3ccccc3OC)CC2)NC#N)c1 (stereo unspecified) | 8.40
COC(=O)C1=C(C)N=C(C)/C(=C(/O)OC)C1c1cccc(N/C(=N/CCNC2CCN(c3ccccc3[N+](=O)[O-])CC2)NC#N)c1 (stereo unspecified) | 8.40
COC(=O)C1=C(C)N=C(C)/C(=C(/O)OC)C1c1cccc(NC(=O)NCCNC2CCN(c3ccccc3OC(F)(F)F)CC2)c1 (stereo unspecified) | 7.60
COC(=O)C1=C(C)N=C(C)/C(=C(/O)OC)C1c1cccc(NC(=O)NCCNC2CCN(c3ccccc3OC)CC2)c1 (stereo unspecified) | 8.70
COC(=O)C1=C(C)N=C(C)/C(=C(/O)OC)C1c1cccc(NC(=O)NCCNC2CCN(c3ccccc3C)CC2)c1 (stereo unspecified) | 8.40
COC(=O)C1=C(C)N=C(C)/C(=C(/O)OC)C1c1cccc(NC(=O)NCCNC2CCN(c3ccccc3)CC2)c1 (stereo unspecified) | 8.70

The next lines start with the values.

pIC50 | SMILES
8.10 | COC(=O)C1=C(C)N=C(C)/C(=C(/O)OC)C1c1cccc(NC(=O)NCCNC2CCN(c3cccc(Cl)c3)CC2)c1 (stereo unspecified)
8.30 | COC(=O)C1=C(C)N=C(C)/C(=C(/O)OC)C1c1cccc(N/C(=N/CCNC2CCN(c3ccccc3O)CC2)NC#N)c1 (stereo unspecified)
8.52 | COC(=O)C1=C(C)N=C(C)/C(=C(/O)OC)C1c1cccc(N/C(=N/CCNC2CCN(c3ccccc3C#N)CC2)NC#N)c1 (stereo unspecified)
8.00 | COC(=O)C1=C(C)N=C(C)/C(=C(/O)OC)C1c1cccc(N/C(=N/CCNC2CCN(c3ccccc3)CC2)NC#N)c1 (stereo unspecified)
8.22 | COC(=O)C1=C(C)N=C(C)/C(=C(/O)OC)C1c1cccc(NC(=O)NCCNC2CCN(c3ccccc3O)CC2)c1 (stereo unspecified)
8.70 | COC(=O)C1=C(C)N=C(C)/C(=C(/O)OC)C1c1cccc(NC(=O)NCCNC2CCN(c3ccccc3[N+](=O)[O-])CC2)c1 (stereo unspecified)
8.52 | COC(=O)C1=C(C)N=C(C)/C(=C(/O)OC)C1c1cccc(N/C(=N/CCNC2CCN(c3ccccc3SC)CC2)NC#N)c1 (stereo unspecified)

Molecular target: T1, Neuropeptide Y receptor type 1
Test: Antagonist activity towards Neuropeptide Y receptor type 1
Assay type: functional

pKi | SMILES
8.44 | COC(=O)C1=C(C)N=C(C)/C(=C(/O)OC)C1c1cccc(N/C(=N/CCNC2CCN(c3ccccc3OC)CC2)NC#N)c1 (stereo unspecified)
8.72 | COC(=O)C1=C(C)N=C(C)/C(=C(/O)OC)C1c1cccc(NC(=O)NCCNC2CCN(c3ccccc3OC)CC2)c1 (stereo unspecified)

System: not listed separately
Test: Tested for inhibition of the forskolin-stimulated cAMP production
Assay type: functional

SMILES | Kb
COC(=O)C1=C(C)N=C(C)/C(=C(/O)OC)C1c1cccc(N/C(=N/CCNC2CCN(c3ccccc3OC)CC2)NC#N)c1 (stereo unspecified) | 9.4 nM
COC(=O)C1=C(C)N=C(C)/C(=C(/O)OC)C1c1cccc(NC(=O)NCCNC2CCN(c3ccccc3OC)CC2)c1 (stereo unspecified) | 20 nM
